Results: ChEMBL document CHEMBL1201862, “PubChem BioAssay data set” (2004)
Active and inactive are the calls of the source.

Tests used:
[1] = biological target: Phosphomannomutase 2 (Homo sapiens, UniProt O15305); assay: Counter screen SAR assay for PMM2 inhibitors via a fluorescence intensity assay. [Related pubchem assays (depositor defined):AID1545, AID1574]
[2] = biological target: Phosphoethanolamine/phosphocholine phosphatase (Homo sapiens, UniProt Q8TCT1); assay: SAR assay for compounds that inhibit PHOSPHO1. [Related pubchem assays (depositor defined):AID1545, AID1565, AID1574]
Phosphoethanolamine/phosphocholine phosphatase, sequence (Q8TCT1 whole entry): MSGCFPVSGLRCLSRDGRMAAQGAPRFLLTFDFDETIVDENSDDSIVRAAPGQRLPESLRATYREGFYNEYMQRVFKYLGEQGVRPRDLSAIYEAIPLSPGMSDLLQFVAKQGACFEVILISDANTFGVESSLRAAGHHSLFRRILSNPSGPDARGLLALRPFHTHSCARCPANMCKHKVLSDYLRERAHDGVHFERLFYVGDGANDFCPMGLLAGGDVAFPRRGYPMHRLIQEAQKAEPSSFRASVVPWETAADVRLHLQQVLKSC

[3] = biological target: T1, Mannose-6-phosphate isomerase (Homo sapiens, UniProt P34949); assay: phosphomannose isomerase inhibition – biochemical, fluorescence intensity, confirmation (AID 1535)
T1 sequence (P34949 whole entry): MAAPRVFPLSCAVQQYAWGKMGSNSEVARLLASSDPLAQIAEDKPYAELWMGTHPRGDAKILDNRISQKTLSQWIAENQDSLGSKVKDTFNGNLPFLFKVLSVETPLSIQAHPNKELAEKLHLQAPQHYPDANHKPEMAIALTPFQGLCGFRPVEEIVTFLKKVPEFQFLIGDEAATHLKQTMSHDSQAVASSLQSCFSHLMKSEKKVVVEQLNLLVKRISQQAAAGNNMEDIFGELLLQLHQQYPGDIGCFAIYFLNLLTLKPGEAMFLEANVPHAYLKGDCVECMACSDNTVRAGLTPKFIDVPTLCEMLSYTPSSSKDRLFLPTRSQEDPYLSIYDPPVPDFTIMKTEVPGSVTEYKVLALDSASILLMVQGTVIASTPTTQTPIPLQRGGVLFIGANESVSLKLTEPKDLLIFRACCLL

[4] = biological target: T2, Intestinal-type alkaline phosphatase (Homo sapiens, UniProt P09923); assay: activation of human intestinal alkaline phosphatase – biochemical, luminescent, uHTS hits, set 2, dose response (AID 488817); format: functional;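 further: potency of activators that raise enzyme activity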
T2 sequence (P09923 whole entry): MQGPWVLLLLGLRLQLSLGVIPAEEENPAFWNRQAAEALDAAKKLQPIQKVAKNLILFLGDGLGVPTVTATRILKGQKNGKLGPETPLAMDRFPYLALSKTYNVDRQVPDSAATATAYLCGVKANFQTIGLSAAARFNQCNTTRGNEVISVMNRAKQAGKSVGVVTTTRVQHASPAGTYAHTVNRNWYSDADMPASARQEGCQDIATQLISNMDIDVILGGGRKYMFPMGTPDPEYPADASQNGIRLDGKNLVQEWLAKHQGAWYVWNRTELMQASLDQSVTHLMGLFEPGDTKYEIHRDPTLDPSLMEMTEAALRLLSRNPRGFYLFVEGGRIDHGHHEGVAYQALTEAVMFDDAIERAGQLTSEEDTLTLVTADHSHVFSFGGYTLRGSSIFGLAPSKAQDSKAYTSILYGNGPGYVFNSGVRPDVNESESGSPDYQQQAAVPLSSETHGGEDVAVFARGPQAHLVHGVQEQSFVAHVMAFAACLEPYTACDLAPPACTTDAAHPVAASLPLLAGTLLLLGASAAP

[5] = biological target: Intestinal-type alkaline phosphatase (Mus musculus, UniProt P24822); assay: PubChem AID 488875; format: functional
Intestinal-type alkaline phosphatase (Mus musculus, UniProt P24822), sequence (P24822 whole entry): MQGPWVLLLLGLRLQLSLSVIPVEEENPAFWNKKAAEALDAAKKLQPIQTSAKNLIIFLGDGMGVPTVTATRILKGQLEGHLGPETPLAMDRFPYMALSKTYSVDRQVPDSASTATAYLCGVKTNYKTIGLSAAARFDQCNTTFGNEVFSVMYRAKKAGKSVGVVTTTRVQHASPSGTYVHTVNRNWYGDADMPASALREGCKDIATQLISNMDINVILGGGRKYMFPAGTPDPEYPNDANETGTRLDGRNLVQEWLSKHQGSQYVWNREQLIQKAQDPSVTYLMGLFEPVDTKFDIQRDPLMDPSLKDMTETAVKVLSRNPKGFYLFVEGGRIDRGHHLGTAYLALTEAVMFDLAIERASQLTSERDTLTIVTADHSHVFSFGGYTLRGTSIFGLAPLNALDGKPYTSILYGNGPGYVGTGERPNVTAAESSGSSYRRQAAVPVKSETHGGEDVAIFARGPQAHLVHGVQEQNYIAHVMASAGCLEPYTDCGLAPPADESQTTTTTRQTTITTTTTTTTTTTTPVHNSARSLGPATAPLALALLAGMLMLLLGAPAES

[6] = biological target: T3, Alkaline phosphatase, tissue-nonspecific isozyme (Homo sapiens, UniProt P05186); assay: activation of tissue-nonspecific alkaline phosphatase – biochemical, TNAP isozyme, human IAP uHTS hits, selectivity assay for human IAP activator project, dose response (AID 488886); format: functional;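 further: potency of compounds raising TNAP activity as a selectivity check on IAP activators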
T3 sequence (P05186 whole entry): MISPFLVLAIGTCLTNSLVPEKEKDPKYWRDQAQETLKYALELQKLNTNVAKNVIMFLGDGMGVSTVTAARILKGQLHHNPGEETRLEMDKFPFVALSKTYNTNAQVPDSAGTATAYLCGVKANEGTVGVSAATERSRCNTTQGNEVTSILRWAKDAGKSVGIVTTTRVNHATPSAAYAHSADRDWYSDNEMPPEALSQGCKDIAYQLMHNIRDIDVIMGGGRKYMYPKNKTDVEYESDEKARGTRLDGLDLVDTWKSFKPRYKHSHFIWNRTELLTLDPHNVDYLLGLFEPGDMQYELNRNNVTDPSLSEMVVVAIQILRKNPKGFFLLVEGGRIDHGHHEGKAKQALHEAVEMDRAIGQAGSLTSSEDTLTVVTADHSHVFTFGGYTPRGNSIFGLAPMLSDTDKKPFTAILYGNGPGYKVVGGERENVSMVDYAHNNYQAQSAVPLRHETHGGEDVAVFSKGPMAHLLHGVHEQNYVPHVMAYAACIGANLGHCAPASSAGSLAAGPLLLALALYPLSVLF

[7] = biological target: T2, Intestinal-type alkaline phosphatase; assay: human intestinal alkaline phosphatase activators, dose response, biochemical, luminescence, uHTS hits (AID 463120); format: functional
[8] = biological target: Dual specificity tyrosine-phosphorylation-regulated kinase 1A (Rattus norvegicus, UniProt Q63470); format: biochemical, Homo sapiens
[9] = biological target: Heat shock protein HSP 90-alpha (Homo sapiens, UniProt P07900); format: functional, organism-based
[10] = biological target: T4, Hexokinase-1 (Homo sapiens, UniProt P19367); assay: hexokinase 1 activity inhibitors, potency – biochemical, set 2, resazurin fluorescence coupled readout, selectivity assay for HKDC1 inhibitor project, SAR follow-up (AID 588356); format: functional
T4 sequence (P19367 whole entry): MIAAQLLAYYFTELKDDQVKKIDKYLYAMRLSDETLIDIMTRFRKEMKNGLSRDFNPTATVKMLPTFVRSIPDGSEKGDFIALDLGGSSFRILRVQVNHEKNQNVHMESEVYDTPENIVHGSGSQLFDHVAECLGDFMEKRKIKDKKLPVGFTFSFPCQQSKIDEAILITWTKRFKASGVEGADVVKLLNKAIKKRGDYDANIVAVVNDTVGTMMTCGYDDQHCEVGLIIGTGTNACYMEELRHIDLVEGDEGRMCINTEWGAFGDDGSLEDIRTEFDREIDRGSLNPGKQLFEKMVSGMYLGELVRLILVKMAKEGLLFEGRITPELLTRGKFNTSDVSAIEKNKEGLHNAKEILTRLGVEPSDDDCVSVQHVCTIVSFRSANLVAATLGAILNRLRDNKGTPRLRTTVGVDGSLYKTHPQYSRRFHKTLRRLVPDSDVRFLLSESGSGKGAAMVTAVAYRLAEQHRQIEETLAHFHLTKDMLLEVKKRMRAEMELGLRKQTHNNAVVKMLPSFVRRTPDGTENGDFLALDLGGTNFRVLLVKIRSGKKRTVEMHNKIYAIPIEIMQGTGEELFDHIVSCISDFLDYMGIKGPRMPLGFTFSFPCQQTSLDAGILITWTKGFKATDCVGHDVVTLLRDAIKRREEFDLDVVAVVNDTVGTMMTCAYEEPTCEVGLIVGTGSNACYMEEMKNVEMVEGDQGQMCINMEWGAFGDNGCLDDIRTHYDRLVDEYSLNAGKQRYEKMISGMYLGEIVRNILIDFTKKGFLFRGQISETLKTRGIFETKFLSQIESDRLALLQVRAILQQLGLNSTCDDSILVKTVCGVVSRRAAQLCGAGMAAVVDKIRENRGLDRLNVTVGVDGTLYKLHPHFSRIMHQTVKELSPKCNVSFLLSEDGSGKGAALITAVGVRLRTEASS

[11] = biological target: T5, Hexokinase HKDC1 (Homo sapiens, UniProt Q2TB90); assay: analog inhibition of human HKDC1 activity – biochemical, set 2, SAR follow-up (AID 588355); format: functional
T5 sequence (Q2TB90 whole entry): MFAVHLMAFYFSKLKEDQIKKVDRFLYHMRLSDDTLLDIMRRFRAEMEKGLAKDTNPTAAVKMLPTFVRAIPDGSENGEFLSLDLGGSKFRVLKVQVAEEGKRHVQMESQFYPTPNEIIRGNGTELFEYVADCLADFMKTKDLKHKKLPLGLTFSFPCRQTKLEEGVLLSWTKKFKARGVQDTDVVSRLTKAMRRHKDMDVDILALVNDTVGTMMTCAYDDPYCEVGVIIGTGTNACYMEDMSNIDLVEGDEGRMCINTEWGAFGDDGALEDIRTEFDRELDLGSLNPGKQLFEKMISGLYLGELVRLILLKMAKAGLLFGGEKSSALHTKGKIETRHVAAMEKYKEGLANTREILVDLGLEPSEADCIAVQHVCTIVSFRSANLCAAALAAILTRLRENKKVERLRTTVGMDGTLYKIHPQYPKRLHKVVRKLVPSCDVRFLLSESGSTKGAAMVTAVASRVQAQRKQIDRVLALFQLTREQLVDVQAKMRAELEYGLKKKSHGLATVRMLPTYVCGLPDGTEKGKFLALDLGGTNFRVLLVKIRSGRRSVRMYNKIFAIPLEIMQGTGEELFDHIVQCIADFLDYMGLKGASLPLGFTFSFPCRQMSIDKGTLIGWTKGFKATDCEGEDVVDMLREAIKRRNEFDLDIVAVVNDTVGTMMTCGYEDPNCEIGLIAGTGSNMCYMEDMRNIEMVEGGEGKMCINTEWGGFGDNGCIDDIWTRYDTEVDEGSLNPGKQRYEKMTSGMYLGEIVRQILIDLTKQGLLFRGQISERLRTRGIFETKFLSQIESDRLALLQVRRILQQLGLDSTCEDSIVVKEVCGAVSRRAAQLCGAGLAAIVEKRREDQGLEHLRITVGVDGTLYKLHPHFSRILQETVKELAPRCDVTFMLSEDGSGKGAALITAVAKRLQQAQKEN

[12] = tested on: MDCK; assay: antiviral activity against H1N1 influenza, dose response, cell-based, strain KY180 (AID 540254); format: functional; settings: Canis lupus familiaris
[13] = tested on: MDCK; assay: MDCK cell cytotoxicity, dose response, cytotoxicity control (AID 540296); format: functional; settings: Canis lupus familiaris
[14] = biological target: Nonstructural protein 1 (Influenza A virus, UniProt Q194T2); format: functional, Influenza A virus (A/California/07/2009(H1N1))
Nonstructural protein 1, sequence (Q194T2 whole entry): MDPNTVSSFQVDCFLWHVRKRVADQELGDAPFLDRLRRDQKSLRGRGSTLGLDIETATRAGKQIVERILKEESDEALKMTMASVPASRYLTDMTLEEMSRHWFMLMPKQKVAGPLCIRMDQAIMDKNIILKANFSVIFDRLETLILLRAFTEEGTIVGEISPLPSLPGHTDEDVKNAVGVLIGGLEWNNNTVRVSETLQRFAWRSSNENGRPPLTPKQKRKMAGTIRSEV

[15] = biological target: Keap1/Nrf2 (Homo sapiens, UniProt Q14145); assay: disruptors of Keap1 binding to Nrf2 peptide – biochemical, fluorescence polarization, cherry-picked samples, dose response (AID 588683)
Keap1/Nrf2, sequence (Q16236 whole entry): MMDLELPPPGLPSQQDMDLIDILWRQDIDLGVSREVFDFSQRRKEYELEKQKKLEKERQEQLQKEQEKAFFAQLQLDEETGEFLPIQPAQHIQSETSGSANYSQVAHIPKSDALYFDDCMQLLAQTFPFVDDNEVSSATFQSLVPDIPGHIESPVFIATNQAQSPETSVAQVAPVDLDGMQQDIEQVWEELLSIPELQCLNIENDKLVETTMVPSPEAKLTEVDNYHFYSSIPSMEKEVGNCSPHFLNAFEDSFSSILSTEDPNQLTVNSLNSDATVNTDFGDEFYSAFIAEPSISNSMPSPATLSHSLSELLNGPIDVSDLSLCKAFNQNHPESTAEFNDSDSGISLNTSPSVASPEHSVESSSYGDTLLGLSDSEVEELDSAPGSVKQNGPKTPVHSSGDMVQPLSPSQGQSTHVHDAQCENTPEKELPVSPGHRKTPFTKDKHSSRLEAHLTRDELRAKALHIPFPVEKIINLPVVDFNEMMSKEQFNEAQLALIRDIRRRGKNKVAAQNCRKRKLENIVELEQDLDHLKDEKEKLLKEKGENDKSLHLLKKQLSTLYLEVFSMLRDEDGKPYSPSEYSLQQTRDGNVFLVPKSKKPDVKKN
Keap1/Nrf2, sequence (Q14145 whole entry): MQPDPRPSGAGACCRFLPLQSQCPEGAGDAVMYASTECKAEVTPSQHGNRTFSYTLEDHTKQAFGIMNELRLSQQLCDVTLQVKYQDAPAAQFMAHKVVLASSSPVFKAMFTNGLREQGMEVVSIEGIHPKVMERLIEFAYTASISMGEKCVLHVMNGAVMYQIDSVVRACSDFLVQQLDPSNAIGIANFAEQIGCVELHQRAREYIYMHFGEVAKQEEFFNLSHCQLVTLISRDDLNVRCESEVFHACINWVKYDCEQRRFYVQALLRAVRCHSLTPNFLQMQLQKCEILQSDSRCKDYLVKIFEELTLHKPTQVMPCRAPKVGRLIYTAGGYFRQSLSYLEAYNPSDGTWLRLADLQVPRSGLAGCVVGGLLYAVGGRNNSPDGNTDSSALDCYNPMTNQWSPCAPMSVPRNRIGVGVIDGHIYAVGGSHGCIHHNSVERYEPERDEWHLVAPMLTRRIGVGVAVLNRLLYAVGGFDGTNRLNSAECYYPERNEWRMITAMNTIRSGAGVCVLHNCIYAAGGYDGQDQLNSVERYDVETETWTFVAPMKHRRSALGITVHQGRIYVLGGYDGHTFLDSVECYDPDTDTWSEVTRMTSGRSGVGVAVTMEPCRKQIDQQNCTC

[16] = tested on: HeLa; assay: ATP-based viability loss in HeLa cells – cell-based, CellTiter-Glo luminescence, cherry-pick samples, cytotoxicity control for MITF activator project, dose response (AID 540259); format: functional; settings: Homo sapiens
[17] = viability loss of HMLE_sh_eGFP cells – cell-based, luminescence, counter-screen for HMLE_sh_ECad selective toxicity project, dose response (AID 463074); format: functional, Homo sapiens;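 further: HMLE human mammary epithelial cells expressing control shRNA against eGFP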
[18] = Luminescence Cell-Based Dose Retest to Confirm Inhibitors of Cancer Stem Cells. [Related pubchem assays (depositor defined):AID2717, AID2721]; format: functional; settings: Homo sapiens
[19] = biological target: T6, Short transient receptor potential channel 4 (Mus musculus, UniProt Q9QUQ5); assay: SAR Analysis for the identification of selective inhibits of the transient receptor potential cation channel C4 (TRPC4): Automated Electrophysiology_2. [Related pubchem assays (depositor defined):AID2256]; format: functional
T6 sequence (Q9QUQ5 whole entry): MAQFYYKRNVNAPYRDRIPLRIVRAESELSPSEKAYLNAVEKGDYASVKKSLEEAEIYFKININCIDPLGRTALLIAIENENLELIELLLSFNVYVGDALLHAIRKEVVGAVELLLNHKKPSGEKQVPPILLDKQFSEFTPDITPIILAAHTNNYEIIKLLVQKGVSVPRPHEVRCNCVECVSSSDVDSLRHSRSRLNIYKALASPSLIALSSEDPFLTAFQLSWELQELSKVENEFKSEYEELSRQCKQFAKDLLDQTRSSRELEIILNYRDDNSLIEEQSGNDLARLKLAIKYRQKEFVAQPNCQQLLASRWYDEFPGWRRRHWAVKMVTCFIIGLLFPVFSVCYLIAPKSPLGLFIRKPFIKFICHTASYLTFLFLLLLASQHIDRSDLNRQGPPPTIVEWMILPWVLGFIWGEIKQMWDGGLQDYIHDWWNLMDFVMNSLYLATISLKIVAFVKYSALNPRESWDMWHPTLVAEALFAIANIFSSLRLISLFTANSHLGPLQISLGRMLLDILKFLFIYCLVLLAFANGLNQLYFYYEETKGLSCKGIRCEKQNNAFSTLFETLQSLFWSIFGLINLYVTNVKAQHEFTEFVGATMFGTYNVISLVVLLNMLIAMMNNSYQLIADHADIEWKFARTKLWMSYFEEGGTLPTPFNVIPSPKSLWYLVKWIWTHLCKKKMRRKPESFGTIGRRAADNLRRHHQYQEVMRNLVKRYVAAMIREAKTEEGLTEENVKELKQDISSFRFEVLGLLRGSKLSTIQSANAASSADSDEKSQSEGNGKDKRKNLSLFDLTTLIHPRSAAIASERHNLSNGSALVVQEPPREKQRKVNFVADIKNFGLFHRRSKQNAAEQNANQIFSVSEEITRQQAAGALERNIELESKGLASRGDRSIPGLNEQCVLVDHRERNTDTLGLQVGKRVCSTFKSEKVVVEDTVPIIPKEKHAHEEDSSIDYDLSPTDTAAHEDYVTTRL

[20] = Luminescence Cell-Based Secondary HTS screen to identify cytotoxic compounds of NIH3T3 cells. [Related pubchem assays: 1885, 1968 ]; format: functional
[21] = Luminescence Cell-Based/Microorganism Confirmation at Dose of Inhibitors of Trypanosoma cruzi Infection. [Related pubchem assays: 1885, 1968 ]; format: functional
[22] = Trypanosoma cruzi growth suppression in host cells – NIH3T3 host cells, beta-gal luminescence, confirmation (AID 2044); format: functional, cell-based;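 further: intracellular parasites grown in NIH/3T3 mouse fibroblasts as host cells; luminescent beta-galactosidase reporter signal from transgenic T. cruzi replicating inside host cells; inhibitors lower the luminescence signal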
[23] = T. cruzi infection blockers in NIH3T3 cells – beta-gal luminescence, NIH3T3 host cells, confirmation (AID 2630); format: functional, cell-based; settings: Mus musculus
[24] = NIH3T3 cell viability loss – ATP luminescence, mouse fibroblasts, counter-screen, dose response (AID 2010); format: functional, cell-based;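 further: cells exposed to compound for about 90 hours before reading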

Phosphomannomutase 2, sequence (O15305 whole entry): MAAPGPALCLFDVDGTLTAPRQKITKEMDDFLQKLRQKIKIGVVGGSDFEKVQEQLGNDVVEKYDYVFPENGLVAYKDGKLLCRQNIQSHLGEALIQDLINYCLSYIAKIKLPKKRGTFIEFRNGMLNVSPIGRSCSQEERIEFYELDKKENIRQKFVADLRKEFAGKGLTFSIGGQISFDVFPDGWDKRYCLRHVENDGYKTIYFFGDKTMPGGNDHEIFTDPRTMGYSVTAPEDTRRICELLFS

O=c1c2c([N+](=O)[O-])cc([N+](=O)[O-])cc2sn1-c1cccc(F)c1
IC50 [1]: 2.08 µM (active)
IC50 [2]: 0.0348 µM (active)
IC50 [3]: 30.1 µM (active)

COc1ccc(CN2CCC(n3nccc3NC(=O)CCCc3ccccc3)CC2)cc1C
EC50 [4]: 72.5 µM (active)
EC50 [5]: 75 µM (active)
EC50 [6]: 70.1 µM (active)
EC50 [7]: 77.4 µM (active)

O=[N+]([O-])c1cc(/C=N/O)ccc1Oc1ccccc1Cl
AC50 [8]: 3.19 µM (active)
AC50 [9]: 3.04 µM (active)

Cc1ccc(NC2c3ccccc3C(=O)N2c2ccccc2C)cc1 (centres undefined)
IC50 [10]: > 80 µM (inactive)
IC50 [11]: > 80 µM (inactive)

CCOC(=O)c1c(CN(C)C)oc2cc(CN(C)C)c(O)c(CSc3ccccc3)c12
IC50 [12]: 22.6 µM (active)
CC50 [13]: 19.5 µM (active)
IC50 [14]: > 100 µM (active)

CCCCOc1ccc(C2OC34CCCCC3C(C#N)(C#N)C2(C#N)C(=N)O4)cc1 (centres undefined)
AC50 [15]: > 52 µM (inactive)

CCCN(Cc1ccc(C)cc1)C(=O)c1ccc(CNS(=O)(=O)c2ccc(C(C)=O)cc2)cc1
AC50 [16]: 37.4 µM (active)

Cc1ccc2ncnc(Nc3ccc(C)c(C)c3)c2c1
AC50 [17]: 63.8 µM (active)
AC50 [18]: 1.03 µM (active)

Cc1cc(N2CCN(c3ccccc3C#N)CC2)nc2ccccc12
IC50 [19]: 8.9 µM (active)

Cc1ccccc1OCCCCCn1ccnc1
EC50 [20]: 116 µM (active)
EC50 [21]: 0.417 µM (active)
EC50 [22]: 0.54 µM (active)
EC50 [23]: 0.417 µM (active)
EC50 [24]: > 60 µM (not active)
